Test results reported in US20220395497A1, “Cancer Treatment Using Camptothecin Derivatives” (priority 2019, published 2022).
Several values for one entry are separate records, joined by “and”; a condition that tells them apart may be missing. Equal values may be shown once. Entries after “also recorded” stand apart in the source; their conditions may differ.

Tested on: adults with recurrence of glioblastoma multiforme (GBM)
Experiment: Phase 2 open-label study of IV AR-67 (7.5 mg/m2 once daily for 5 days, 21-day cycle) in recurrent GBM: adverse events (Safety Population, NCI-CTCAE). Cohort 1 = not received or not recently failed (>90 days) bevacizumab; Cohort 2 = recently (<90 days) failed bevacizumab
Type: in vivo, human
Conditions: for 1 related SAE, patients (%) / related SAE, No of Events / related TEAE, No of Events / ≥1 related TEAE, patients (%): possibly, probably, or definitely related
Method: This solution was reconstituted in dextrose 5% in water to a final concentration between 0.06-0.6 mg/mL Drug (7.5 mg/m2) was to be given until the onset of toxicity requiring discontinuation or tumor progression. Tumor response was assessed=14d after every second cycle and before every third cycle using MRI.

[1] = reGBM, single agent, infusion, N = 45

Structure (SMILES): CC[C@@]1(O)C(=O)OCc2c1cc1n(c2=O)Cc2c-1nc1ccc(O)cc1c2[Si](C)(C)C(C)(C)C [AR-67, (205)-7-tert-butyldimethysilyl-10-hydroxycamptothecin]
- TEAE NCI-CTCAE Grade 1, No of Events (Cohort 1, N = 30): 178
- TEAE NCI-CTCAE Grade 1, patients (%) (Cohort 1, N = 30): (70.0) %
- TEAE NCI-CTCAE Grade 2, No of Events (Cohort 1, N = 30): 94
- TEAE NCI-CTCAE Grade 2, patients (%) (Cohort 1, N = 30): (60.0) %
- TEAE NCI-CTCAE Grade 3, No of Events (Cohort 1, N = 30): 63
- TEAE NCI-CTCAE Grade 3, patients (%) (Cohort 1, N = 30): (63.3) %
- TEAE NCI-CTCAE Grade 4, No of Events (Cohort 1, N = 30): 5
- TEAE NCI-CTCAE Grade 4, patients (%) (Cohort 1, N = 30): (16.7) %
- TEAE NCI-CTCAE Grade 5, No of Events (Cohort 1, N = 30): 0
- TEAE Nausea, patients (%) (Cohort 1, N = 30): 13.3%
- TEAE Nervous System Disorders, patients (%) (Cohort 1, N = 30): (50.0) %
- TEAE Neutropenia, patients (%) (Cohort 1, N = 30): 16.7%
- TEAE Neutrophil count decreased, patients (%) (Cohort 1, N = 30): 16.7%
- TEAE Not Related to AR-67, No of Events (Cohort 1, N = 30): 83
- TEAE Not Related to AR-67, patients (%) (Cohort 1, N = 30): (66.7) %
- TEAE Platelet count decreased, patients (%) (Cohort 1, N = 30): 13.3%
- TEAE Possibly Related to AR-67, No of Events (Cohort 1, N = 30): 146
- TEAE Possibly Related to AR-67, patients (%) (Cohort 1, N = 30): (66.7) %
- TEAE Probably Related to AR-67, No of Events (Cohort 1, N = 30): 76
- TEAE Probably Related to AR-67, patients (%) (Cohort 1, N = 30): (40.0) %
- TEAE Psychiatric Disorders, patients (%) (Cohort 1, N = 30): 30.0%
- TEAE Respiratory, Thoracic, and Mediastinal Disorders, patients (%) (Cohort 1, N = 30): (30.0) %
- TEAE Thrombocytopenia, patients (%) (Cohort 1, N = 30): 20%
- TEAE Vascular Disorders, patients (%) (Cohort 1, N = 30): (23.3) %
- TEAE Vision blurred, patients (%) (Cohort 1, N = 30): (10.0) %
- TEAE Vomiting, patients (%) (Cohort 1, N = 30): 10.0%
- TEAE White blood cell count decreased, patients (%) (Cohort 1, N = 30): 16.7%
- TEAE leading to death, No of Events (Cohort 1, N = 30): 16
- TEAE leading to early discontinuation, No of Events (Cohort 1, N = 30): 5
- TEAE, No of Events (Cohort 1, N = 30): 346
- severe WBC count decreased, patients (%) (Cohort 1, N = 30): 10.0%
- severe neutropenia, patients (%) (Cohort 1, N = 30): 16.7%
- severe neutrophil count decreased, patients (%) (Cohort 1, N = 30): 10.0%
- ≥1 TEAE leading to death, patients (%) (Cohort 1, N = 30): (3.3) %
- 1 related SAE, patients (%) (Cohort 1, N = 30): (20.0) %
- related SAE, No of Events (Cohort 1, N = 30): 10
- related TEAE, No of Events (Cohort 1, N = 30): 258
- ≥1 related TEAE, patients (%) (Cohort 1, N = 30): (83.3) %
- SAE blood and lymphatic system disorders, events (Cohort 2): 3
- SAE blood and lymphatic system disorders, patients (Cohort 2): 2
- SAE headache, patients (Cohort 2): 2
- SAE nervous system disorders, events (Cohort 2): 6
- SAE nervous system disorders, patients (Cohort 2): 6
- Death, No of Events (Cohort 2, N = 13): 2
- Death, patients (%) (Cohort 2, N = 13): (15.4) %
- SAE, No of Events (Cohort 2, N = 13): 14
- TEAE Blood and Lymphatic System Disorders, events (Cohort 2, N = 13): 3
- TEAE Blood and Lymphatic System Disorders, patients (%) (Cohort 2, N = 13): 15.4% and 15%
- TEAE Constipation, patients (%) (Cohort 2, N = 13): 15.4% and 15%
- TEAE Convulsion, patients (%) (Cohort 2, N = 13): 7.7%
- TEAE Definitely Related to AR-67, No of Events (Cohort 2, N = 13): 8
- TEAE Definitely Related to AR-67, patients (%) (Cohort 2, N = 13): (38.5) %
- TEAE Diarrhoea, patients (%) (Cohort 2, N = 13): 15.4% and 15%
- TEAE Eye Disorders, patients (%) (Cohort 2, N = 13): 7.7%
- TEAE Gastrointestinal Disorders, patients (%) (Cohort 2, N = 13): 53.8%
- TEAE General Disorders and Administration Site Conditions, patients (%) (Cohort 2, N = 13): 38.5%
- TEAE Intensity Life Threatening, No of Events (Cohort 2, N = 13): 1
- TEAE Intensity Life Threatening, patients (%) (Cohort 2, N = 13): (7.7) %
- TEAE Intensity Mild, No of Events (Cohort 2, N = 13): 20
- TEAE Intensity Mild, patients (%) (Cohort 2, N = 13): (53.8) %
- TEAE Intensity Moderate, No of Events (Cohort 2, N = 13): 18
- TEAE Intensity Moderate, patients (%) (Cohort 2, N = 13): (30.8) %
- TEAE Intensity Severe, No of Events (Cohort 2, N = 13): 14
- TEAE Intensity Severe, patients (%) (Cohort 2, N = 13): (61.5) %
- TEAE Investigations SOC, events (Cohort 2, N = 13): 2
- TEAE Investigations, patients (%) (Cohort 2, N = 13): 7.7%
- TEAE Metabolism and Nutrition Disorders, patients (%) (Cohort 2, N = 13): (15.4) %
- TEAE Musculoskeletal and Connective Tissue Disorders, patients (%) (Cohort 2, N = 13): 23.1%
- TEAE NCI-CTCAE Grade 1, No of Events (Cohort 2, N = 13): 17
- TEAE NCI-CTCAE Grade 1, patients (%) (Cohort 2, N = 13): (53.8) %
- TEAE NCI-CTCAE Grade 2, No of Events (Cohort 2, N = 13): 16
- TEAE NCI-CTCAE Grade 2, patients (%) (Cohort 2, N = 13): (30.8) %
- TEAE NCI-CTCAE Grade 3, No of Events (Cohort 2, N = 13): 16
- TEAE NCI-CTCAE Grade 3, patients (%) (Cohort 2, N = 13): (69.2) %
- TEAE NCI-CTCAE Grade 4, No of Events (Cohort 2, N = 13): 3
- TEAE NCI-CTCAE Grade 4, patients (%) (Cohort 2, N = 13): (23.1) %
- TEAE NCI-CTCAE Grade 5, No of Events (Cohort 2, N = 13): 0
- TEAE Nausea, patients (%) (Cohort 2, N = 13): 30.8% and 31%
- TEAE Nervous System Disorders, patients (%) (Cohort 2, N = 13): 46.2%
- TEAE Neutropenia, patients (%) (Cohort 2, N = 13): 7.7%
- TEAE Not Related to AR-67, No of Events (Cohort 2, N = 13): 25
- TEAE Not Related to AR-67, patients (%) (Cohort 2, N = 13): (53.8) %
- TEAE Possibly Related to AR-67, No of Events (Cohort 2, N = 13): 19
- TEAE Possibly Related to AR-67, patients (%) (Cohort 2, N = 13): (53.8) %
- TEAE Probably Related to AR-67, No of Events (Cohort 2, N = 13): 1
- TEAE Probably Related to AR-67, patients (%) (Cohort 2, N = 13): (7.7) %
- TEAE Psychiatric Disorders, patients (%) (Cohort 2, N = 13): 23.1%
- TEAE Respiratory, Thoracic, and Mediastinal Disorders, patients (%) (Cohort 2, N = 13): (15.4) %
- TEAE Thrombocytopenia, patients (%) (Cohort 2, N = 13): 7.7%
- TEAE Vision blurred, patients (%) (Cohort 2, N = 13): 7.7%
- TEAE Vomiting, patients (%) (Cohort 2, N = 13): 7.7%
- TEAE leading to death, No of Events (Cohort 2, N = 13): 1
- TEAE leading to early discontinuation, No of Events (Cohort 2, N = 13): 5
- TEAE, No of Events (Cohort 2, N = 13): 55
- ≥1 TEAE leading to death, patients (%) (Cohort 2, N = 13): (7.7) %
- 1 related SAE, patients (%) (Cohort 2, N = 13): (38.5) %
- related SAE, No of Events (Cohort 2, N = 13): 9
- related TEAE, No of Events (Cohort 2, N = 13): 28
- ≥1 related TEAE, patients (%) (Cohort 2, N = 13): (76.9) %
- patients with AEs documented as mild, moderate, and severe intensity (span over the three) (Safety Population): 58-69%
- toxicities relative to comparator drug (comparison with published trials of the comparator): reduced toxicities relative to the toxicities induced by Etirinotecan treatment; also recorded: reduced toxicities relative to the toxicities induced by Karenitecin treatment; also recorded: reduced toxicities relative to the toxicities induced by Gimatecan treatment; also recorded: reduced toxicities relative to the toxicities induced by Lomustine treatment; also recorded: does not display the severe dose limiting toxicities typical of the marketed standard, Irinotecan; also recorded: dramatically reduced toxicities relative to the toxicities induced by Irinotecan treatment
- tolerability (in vivo): generally well tolerated
- TEAEs leading to discontinuation from the nervous system disorders SOC, events (of the 10 TEAEs leading to discontinuation): Six
- Diarrhoea Grades 3-5 (reGBM, single agent, N = 45): 0%
- Nausea Grades 3-5 (reGBM, single agent, N = 45): 2%
- Thrombocytopenia Grades 3-4 (reGBM, single agent, N = 45): 4%
- Vomiting Grades 3-5 (reGBM, single agent, N = 45): 0%
- Neutropenia Grades 3-4 (reGBM, single agent, N = 45, All grade 3): 13%
- Diarrhoea Grade 4 [1]: 0%
- Nausea Grades 3,4 [1]: 2%
- Neutropenia Grade 4 [1]: 0%
- Vomiting Grades 3,4 [1]: 0%
